The source of these data is PMC6804466 (Acta Pharmaceutica Sinica. B, 2019).

Broadly, the AUC(0-t) is the area under the concentration-time curve up to a stated or last time point. Low readings indicate low exposure, high ones high exposure. What is called clearance is the volume of plasma or blood freed of the substance per unit of time. Read a high clearance as a high capacity for elimination. One may read the half-life as the time needed for the level to fall by half in the phase considered. Read a high half-life as slow decline.

Marks after values point to notes of the source that are not given here.

For data set [1], the system named is hOAT3-HEK293 cells. The experiment in a line: Cytotoxicity of Imp, CCK-8 assay, hOAT3-HEK293 cells. Particulars: 24 h; for Survival rate of hOAT3-HEK293 cells with Imp in the presence of Cil or Prb: Imp 1 mmol/L plus the named inhibitor 200 μmol/L. It counts as cell-based, human. A general note: Tetrazolium assays rely on reduction of a dye to a coloured formazan, in cell work by metabolically active cells.

For data set [2] the following is noted: cited from earlier work.
A short description of data set [3]: Imp-induced nephrotoxicity in rabbits. It counts as in vivo, rabbit. Particulars: for Imp-induced acute structural damage of rabbit kidney after coadministration: Imp 200 mg/kg i.v. plus Cil 200 mg/kg or Prb 50 mg/kg.
The conditions of data set [4]: human; cited from earlier work.
The conditions of data set [5]: calculated from maximum plasma concentration and plasma protein binding.
Data set [6] has as its system Mock-HEK293 cells. The experiment in a line: Cytotoxicity of Imp, CCK-8 assay, Mock-HEK293 cells. It is filed as cell-based, human. Particulars: 24 h; for Effect of Cil or Prb on the survival rate of Mock cells treated with Imp: Imp 0–1 mmol/L plus the named inhibitor 200 μmol/L.
Data set [7] concerns raOATs. The experiment in a line: Imp uptake by rabbit primary proximal tubule cells. It is filed as cell-based. The following applies: Imp 100 μmol/L, 10 min, vs si-Control cells.
For data set [8], the target named is T1, hOAT3 (Homo sapiens, UniProt Q8TCC7).
T1 sequence (Q8TCC7 1-542): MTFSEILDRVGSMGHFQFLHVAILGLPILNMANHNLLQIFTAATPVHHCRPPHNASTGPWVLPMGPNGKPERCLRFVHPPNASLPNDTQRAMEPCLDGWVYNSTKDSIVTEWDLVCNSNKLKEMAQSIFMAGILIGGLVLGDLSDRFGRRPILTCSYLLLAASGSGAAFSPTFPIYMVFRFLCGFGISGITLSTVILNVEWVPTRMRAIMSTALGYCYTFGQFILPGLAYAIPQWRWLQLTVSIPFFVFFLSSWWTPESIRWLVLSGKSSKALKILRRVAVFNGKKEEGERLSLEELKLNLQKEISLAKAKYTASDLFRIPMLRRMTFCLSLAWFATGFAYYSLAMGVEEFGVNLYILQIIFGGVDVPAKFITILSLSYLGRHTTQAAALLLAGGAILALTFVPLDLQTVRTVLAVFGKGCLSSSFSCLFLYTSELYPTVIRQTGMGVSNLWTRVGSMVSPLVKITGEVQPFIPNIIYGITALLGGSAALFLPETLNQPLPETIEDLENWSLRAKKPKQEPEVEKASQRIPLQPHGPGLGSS
Particulars: 100 μmol/L, 10 min, with or without Prb 200 μmol/L.

The nature of data set [9]: Pharmacokinetics of Imp in rabbits. It is filed as in vivo. Particulars: male, New Zealand white, rabbit, iv, 200 mg/kg.
Data set [10] concerns hOAT1-HEK293 cells. Briefly: Cytotoxicity of Imp, CCK-8 assay, hOAT1-HEK293 cells. It is filed as cell-based, human. The following applies: Imp alone 1 mmol/L, 24 h.
The target in data set [11] is T2, hOAT1 (Homo sapiens, UniProt Q4U2R8).
T2 sequence (Q4U2R8 1-563): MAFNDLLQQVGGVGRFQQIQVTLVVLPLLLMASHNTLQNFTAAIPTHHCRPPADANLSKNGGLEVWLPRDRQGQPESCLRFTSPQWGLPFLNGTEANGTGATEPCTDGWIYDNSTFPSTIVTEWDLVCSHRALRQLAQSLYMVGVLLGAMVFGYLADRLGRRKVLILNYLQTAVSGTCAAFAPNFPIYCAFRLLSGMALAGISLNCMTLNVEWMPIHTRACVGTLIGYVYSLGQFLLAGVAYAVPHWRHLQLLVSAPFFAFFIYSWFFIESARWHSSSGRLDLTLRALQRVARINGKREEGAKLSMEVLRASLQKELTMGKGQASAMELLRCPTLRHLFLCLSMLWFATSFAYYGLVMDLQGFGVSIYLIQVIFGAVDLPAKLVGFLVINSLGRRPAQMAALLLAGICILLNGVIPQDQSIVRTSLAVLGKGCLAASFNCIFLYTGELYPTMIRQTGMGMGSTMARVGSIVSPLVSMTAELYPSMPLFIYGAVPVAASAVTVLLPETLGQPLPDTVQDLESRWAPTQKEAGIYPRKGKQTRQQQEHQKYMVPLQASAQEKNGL
Briefly: Imp uptake by hOAT1-HEK293 cells. It is filed as cell-based. Particulars: 100 μmol/L, 10 min, with or without Prb 200 μmol/L.

Setting [12] is: Imp 200 mg/kg i.v. with or without Cil 200 mg/kg or Prb 50 mg/kg, 48 h.

Take `CC1(C)C[C@@H]1C(=O)N/C(=C\CCCCSC[C@H](N)C(=O)O)C(=O)O` [Cil, cilastatin]: the “Survival rate of hOAT3-HEK293 cells with Imp in the presence of Cil or Prb” value in [1] was 66.3%. The “Maximum clinical plasma concentration of Cil” value in data set [2] (human) is 88 µg/mL. Besides, the “Imp-induced acute structural damage of rabbit kidney after coadministration” value in [3] (48 h) was “significantly reduced”. Also, in data set [4], the “Plasma protein binding of Cil” value is recorded as “approximately 40%”. For the same compound, the “Peak level of free Cil in human” value in data set [5] is on record as “about 140 μmol/L”. For the same compound, the “Effect of Cil or Prb on the survival rate of Mock cells treated with Imp” value in data set [6] is “little effect”.
With `C[C@@H](O)[C@H]1C(=O)N2C(C(=O)O)=C(SCCN=CN)C[C@H]12` [Imp, Imipenem], the “Survival rate of hOAT3-HEK293 cells” value in data set [1] (Imp alone 1 mmol/L) came out at 27.2%. Moreover, in data set [2], the “Renal excretion of Imp” value was roughly 70%. In addition, the “Increase in intracellular level of Imp in rPTCs transfected with si-DHP-I” value in data set [7] was found to be 30%. Also, the “Renal histology (HE and PAS staining)” value in [3] (Imp 200 mg/kg i.v. alone, 48 h) is given as “severe renal damage”. In addition, the “Body weight 0 h” value in data set [3] (Imp 200 mg/kg i.v. with or without Cil 200 mg/kg or Prb 50 mg/kg, 0 h (baseline)) came out at 2.87 ± 0.24 kg. Besides, in data set [3] (setting [12]), the “Body weight 48 h” value came out at 2.69 ± 0.24 kg, the Kidney weight was 13.2 ± 1.5 g and the Kidney/body weight ratio is 4.81 ± 0.29 ^a g/kg. In data set [8], the “Substrate of hOAT3 (uptake vs Mock cells, inhibited by Prb)” value is “substrates of hOAT1 and hOAT3”. In [9] (plasma), this compound had an area under the curve AUC(0-t) of 289 ± 48.7 µg·h/mL, a clearance of 11.9 mL/min/kg and a half-life of 58 ± 4.2 min. This compound also had a CL renal in [9] (urine) of 2.78 mL/min/kg. For the same compound, the “Survival rate of hOAT1-HEK293 cells” value in [10] is 47.5%. In data set [11], the “Substrate of hOAT1 (uptake vs Mock cells, inhibited by Prb)” value is “substrates of hOAT1 and hOAT3”. In addition, in data set [6] (Imp alone 1 mmol/L), the “Survival rate of Mock-HEK293 cells” value is 85.8%.
Regarding `CCCN(CCC)S(=O)(=O)c1ccc(C(=O)O)cc1` [Prb, probenecid], the “Survival rate of hOAT3-HEK293 cells with Imp in the presence of Cil or Prb” value in [1] came out at 76.2%. Further, in [3] (48 h), the “Imp-induced acute structural damage of rabbit kidney after coadministration” value was “significantly reduced”. Moreover, in data set [6], the “Effect of Cil or Prb on the survival rate of Mock cells treated with Imp” value is listed as “little effect”.
